Laboratory results published in US11072617B2, “Bicyclic sulfones and sulfoxides and methods of use thereof” (Genentech, Inc., priority 2017, dated 2021).

biological target: human RIP1 kinase domain (2-375) (Homo sapiens (Human), UniProt Q13546); test: RIP1 kinase inhibition biochemical assay (Transcreener ADP, fluorescence polarization); conditions: Ki app from tight-binding Morrison equation; 50 nM enzyme, 50 uM ATP, 2 hours incubation
Description: RIP1 Kinase Inhibition Assays (Biochemical Assay)
The compounds of the present invention were tested for their capacity to inhibit RIP1K activity as described below.
The ability of the receptor interacting protein kinase (RIPK1) to catalyze the hydrolysis of adenosine-5′-triphosphate (ATP) is monitored using the Transcreener ADP (adenosine-5′-diphosphate) assay (BellBrook Labs). Purified human RIP1 kinase domain (2-375) (50 nM) derived from a baculovirus-infected insect cell expression system is incubated with test compounds for 2 hours in 50 mM Hepes buffer (pH 7.5) containing 30 mM MgCl2, 1 mM dithiothreitol, 50 uM ATP, 0.002% Brij-35, and 0.5% dimethyl sulfoxide (DMSO). Reactions are quenched by the addition of 1× Bell Brooks Stop buffer B (20 mM Hepes (ph7.5), 40 mM ethylenediaminetetraacetic acid and 0.02% Brij-35) containing an additional 12 mM EDTA and 55 ug/mL ADP2 antibody and 4 nM ADP-AlexaFluor® 633 tracer. The tracer bound to the antibody is displaced by the ADP generated during the RIP1K reaction, which causes a decrease in fluorescence polarization that is measured by laser excitation at 633 nm with a FP microplate reader M1000. Fractional activity was plotted against test article concentration. Using Genedata Screener software (Genedata; Basel, Switzerland), the data were fit to the tight-binding apparent inhibition constant (Ki^app) Morrison equation [Williams, J. W. and Morrison, J. F. (1979) The kinetics of reversible tight-binding inhibition. Methods Enzymol 63: 437-67]. The following equation was used to calculate fractional activity and Ki^app:
[formula] where [E]T and [I]T are the total concentrations of active enzyme and test article, respectively.
Exemplary compounds of the present invention are provided in Table 1 along with their physiochemical characterization and in vitro RIP1 kinase inhibitory activity data. “Method” in the first column of each table refers to the synthetic method(s) used to prepare each compound as shown in the Examples above. In certain examples, chiral column retention times (min) are provided for certain stereoisomers. Unless otherwise specified, the stereochemistry shown in each structure represents relative configuration of a single stereoisomer, and absolute configuration (i.e., “R” and/or “S”) is arbitrarily assigned. In some embodiments, where the Method is described to include the separation of stereoisomers, a single stereoisomer of a compound of Table 1 is provided.

Sequence of human RIP1 kinase domain (2-375) (Q13546 2-375): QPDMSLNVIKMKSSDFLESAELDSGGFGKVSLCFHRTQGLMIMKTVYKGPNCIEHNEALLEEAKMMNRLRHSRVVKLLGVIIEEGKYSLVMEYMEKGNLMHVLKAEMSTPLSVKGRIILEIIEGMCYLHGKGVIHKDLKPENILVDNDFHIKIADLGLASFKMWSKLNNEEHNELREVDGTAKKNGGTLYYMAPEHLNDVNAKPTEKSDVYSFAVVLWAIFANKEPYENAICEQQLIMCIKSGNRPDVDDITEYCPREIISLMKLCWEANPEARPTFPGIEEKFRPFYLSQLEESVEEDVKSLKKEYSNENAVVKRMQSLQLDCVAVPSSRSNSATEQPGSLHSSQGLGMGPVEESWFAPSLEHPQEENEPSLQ

Structure (SMILES) | Ki [nM]
N#Cc1ccccc1[C@@H]1C[C@H](F)c2nc(S(=O)(=O)C(F)F)nn21 (single isomer, unassigned) [Example 62] | 266
O=S(=O)(c1nc2n(n1)[C@H](c1ccc(F)c(F)c1)C[C@@H]2F)C(F)F (single isomer, unassigned) [Example 63] | 34
O=S(=O)(c1nc2n(n1)[C@H](c1cccc(Cl)c1F)C[C@@H]2F)C(F)F (single isomer, unassigned) [Example 65] | 18
O=S(=O)(c1nc2n(n1)[C@H](c1cc(F)ccc1F)C[C@@H]2F)C(F)F (single isomer, unassigned) [Example 67] | 5
O=S(=O)(c1nc2n(n1)[C@H](c1cccc(F)c1F)C[C@@H]2F)C(F)F (single isomer, unassigned) [Example 68] | 6
O=S(=O)(CF)c1nc2n(n1)[C@H](c1ccccc1)C[C@@H]2F (single isomer, unassigned) [Example 72] | 23
[O-][S@+](CF)c1nc2n(n1)[C@H](c1ccccc1F)C[C@@H]2F (single isomer, unassigned) [Example 75] | 140
[O-][S@+](CF)c1nc2n(n1)[C@H](c1cccc(F)c1F)C[C@@H]2F (single isomer, unassigned) [Example 77] | 280
[O-][S@+](CF)c1nc2n(n1)[C@H](c1cc(F)ccc1F)C[C@@H]2F (single isomer, unassigned) [Example 79] | 190
[O-][S@+](CF)c1nc2n(n1)[C@H](c1c(F)cccc1F)C[C@@H]2F (single isomer, unassigned) [Example 81] | 290
[O-][S@+](CF)c1nc2n(n1)[C@H](c1cccc(F)c1)C[C@@H]2F (single isomer, unassigned) [Example 83] | 130
[O-][S@+](CF)c1nc2n(n1)[C@H](c1cc(F)cc(F)c1)C[C@@H]2F (single isomer, unassigned) [Example 85] | 180
[O-][S@@+](CF)c1nc2n(n1)[C@H](c1ccccc1Cl)C[C@@H]2F (single isomer, unassigned) [Example 86] | < 5
[O-][S@+](CF)c1nc2n(n1)[C@H](c1ccccc1Cl)C[C@@H]2F (single isomer, unassigned) [Example 87] | 100
N#CCS(=O)(=O)c1nc2n(n1)[C@H](c1ccccc1)C[C@@H]2F (single isomer, unassigned) [Example 88] | 32
N#CCSc1nc2n(n1)[C@H](c1ccccc1)C[C@@H]2F (single isomer, unassigned) [Example 89] | 10
N#CCS(=O)(=O)c1cc2n(n1)[C@H](c1ccccc1)C[C@@H]2F (single isomer, unassigned) [Example 90] | 8

The next lines start with the values.

Ki [nM] | Structure (SMILES)
< 5 | O=S(=O)(c1nc2n(n1)[C@H](c1cc(F)cc(F)c1)C[C@@H]2F)C(F)F (single isomer, unassigned) [Example 69]
3 | [O-][S@@+](CF)c1nc2n(n1)[C@H](c1ccccc1)C[C@@H]2F (single isomer, unassigned) [Example 73]
< 5 | [O-][S@@+](CF)c1nc2n(n1)[C@H](c1ccccc1F)C[C@@H]2F (single isomer, unassigned) [Example 74]
< 5 | [O-][S@@+](CF)c1nc2n(n1)[C@H](c1cccc(F)c1F)C[C@@H]2F (single isomer, unassigned) [Example 76]
< 5 | [O-][S@@+](CF)c1nc2n(n1)[C@H](c1cc(F)ccc1F)C[C@@H]2F (single isomer, unassigned) [Example 78]
< 5 | [O-][S@@+](CF)c1nc2n(n1)[C@H](c1c(F)cccc1F)C[C@@H]2F (single isomer, unassigned) [Example 80]
< 5 | [O-][S@@+](CF)c1nc2n(n1)[C@H](c1cccc(F)c1)C[C@@H]2F (single isomer, unassigned) [Example 82]
< 5 | [O-][S@@+](CF)c1nc2n(n1)[C@H](c1cc(F)cc(F)c1)C[C@@H]2F (single isomer, unassigned) [Example 84]
